# In patent US12612650B2, “Methods for improved homologous recombination and compositions thereof” (LIFE TECHNOLOGIES CORPORATION, priority 2017, dated 2026):
# Tested on: genomic locus of beta-actin
# Assay: OFP-positive cells by flow cytometry after electroporation of Cas9 RNP and donor DNA into human primary T cells
# Assay type: cell-based
# Conditions: 30 μM, 48 hours
# Method: Human peripheral blood mononuclear cells (PBMCs) were isolated from peripheral blood using Ficoll-Paque PLUS density gradient according to manufacturer's instructions. The human primary T cells were then isolated using DYNABEADS™ UNTOUCHED™ Human T Cells Kit and expanded using OPTMIZER™ CTS™ T-Cell Expansion SFM supplemented with 200 IU/mL of IL-2. The activation and expansion of human T cells were carried out using DYNABEADS™ Human T-Expander CD3/CD28 kit. On day 3 of activation, T cells were harvested for transfection.
# For transfection of primary T cells, 1×10^5 cells were used per NEON® electroporation with voltage set at 1700V, pulse width set at 20 ms, and the number of pulses set at 1, respectively. […] Cells were analyzed at 48 hours post transfection.
# Traditionally, a plasmid donor was used to incorporate large DNA molecules into the genome. […] At 48 hours post transfection, we analyzed the percentages of OFP-positive cells using flow cytometry. […]
# Linear ds- or ss-DNA donor could be degraded in vivo by exonucleases. […] At 48 hours post transfection, the percentages of OFP-positive cells were determined by flow cytometric analysis. […]
# The disruption of NHEJ repair pathway is known to improve HDR efficiency. […] At 48 hours post transfection, we analyzed the cells by flow cytometry.
compound,measurement,setting,value
"O=c1cc(N2CCOCC2)oc2c1ccc1ccccc12 [Nu7026, 2-(4-Morpholinyl)-4H-naphthol[1,2-b]pyran-4-one]",increase of the percentage of OFP-positive cells,amine-modified donor DNA,~2 fold
same,increase of the percentage of OFP-positive cells,unmodified donor DNA,approximately 5 fold
